{"source": "patent US10961286B2", "about": "“Nucleic acids, vectors, host cells, and methods for recombinantly producing water-soluble membrane proteins” (CORNELL UNIVERSITY, priority 2014, dated 2021)", "key": {"[1]": {"molecular_target": "T1, EmrE (dimeric, detergent-free OspA-EmrE-ApoAI*) (UniProt P02647+P23895)", "T1 construct": "made in house; host or cells: E. coli BL21(DE3), pET28a", "experiment": "Ligand binding by tryptophan fluorescence quenching, in vivo solubilized EmrE", "design": "species or system E. coli", "conditions": "for binding affinity of OspA-EmrE-ApoAI* compared to detergent-solubilized EmrE: 10 μM protein, EmrE comparator in DDM buffer", "experimental": "Fluorescence spectra of protein samples were collected using a Fluorolog-Tau-3 time-resolved spectrofluorometer (Horiba). Protein concentration of OspA-EmrE-ApoAI* in SEC buffer and EmrE in DDM containing buffer (20 mM Tris-HCl, pH 7.5, 150 mM NaCl, and 0.08% w/v DDM) was 10 μM. Fluorescence spectra using a 295-nm excitation were collected after each volume of ligand. A small magnetic stir bar was added to the 1-cm path-length quartz cuvette containing either the sample or buffer. The stirring speed was set such that the surface was not noticeably disturbed. Approximately 1 min was allowed between the addition of ligand and the beginning of spectra collection. A total of 3 replicates were performed with the first sample preparation to control for experimental variability. After this, only one experimental replicate of the following second and third sample preparations were performed. Thus, each ligand-binding curve reflects the average of 3 replicates from 3 different protein preparations to control for biological and preparation variability. A 10-nm slit width was used for both excitation and emission. The interval was set at 2.0 nm and the integration time at 0.1 s. Only one scan of the emission between 300 and 400 nm was collected per titration. […] Quenching of fluorescence was recorded and plotted using GraphPad PRISM 6.\nIt was next determined whether EmrE that had been solubilized by fusion to ApoAI* was able to bind to known ligands. […] There are a total of 14 aromatic amino acids in EmrE (4 tryptophans, 5 tyrosines, and 5 phenylalanines), some of which participate in ligand binding and protein stability and permit determination of binding constants based on fluorescence quenching (Bay et al., “Spectroscopic Analysis of Small Multidrug Resistance Protein EmrE in the Presence of Various Quaternary Cation Compounds,” Biochim. Biophys. Acta 1818:1318-31 (2012), which is hereby incorporated by reference in its entirety). The ligand binding activity of dimeric, detergent-free OspA-EmrE-ApoAI* was measured and compared to detergent-solubilized EmrE. […]"}, "[2]": {"molecular_target": "in vitro solubilized EmrE (Escherichia coli, UniProt P23895)", "conditions": "cited from earlier work"}, "[3]": {"molecular_target": "T2, CYP17A1 (Homo sapiens, UniProt P05093)", "T2 construct": "microsomes containing native CYP17A1 (5 pmol); made in house; host or cells: transformed yeast (microsomes)", "T2 sequence (P05093 1-508)": "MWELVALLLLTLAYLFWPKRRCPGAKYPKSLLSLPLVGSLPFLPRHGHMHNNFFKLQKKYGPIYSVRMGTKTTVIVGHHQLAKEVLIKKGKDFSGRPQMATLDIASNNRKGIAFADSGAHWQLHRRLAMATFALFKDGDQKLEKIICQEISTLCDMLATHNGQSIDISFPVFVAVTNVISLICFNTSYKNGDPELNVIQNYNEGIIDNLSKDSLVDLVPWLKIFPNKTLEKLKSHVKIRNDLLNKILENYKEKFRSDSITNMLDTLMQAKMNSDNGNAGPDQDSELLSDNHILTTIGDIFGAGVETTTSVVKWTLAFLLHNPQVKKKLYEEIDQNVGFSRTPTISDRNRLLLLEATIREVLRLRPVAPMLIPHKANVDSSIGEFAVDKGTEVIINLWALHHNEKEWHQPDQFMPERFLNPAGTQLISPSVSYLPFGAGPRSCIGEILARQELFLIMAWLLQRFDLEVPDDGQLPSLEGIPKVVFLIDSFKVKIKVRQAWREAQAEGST", "experiment": "Lyase assay: augmentation of CYP17A1 lyase activity by cyt b5 variants", "type": "biochemical", "experimental": "In a 2-ml polypropylene tube, microsomes containing native CYP17A1 (5 pmol) and cytochrome P450 oxidoreductase ([…]), at room temperature for 5 min before adding substrate. The reaction mixture was then diluted to 0.2 ml with 50 mM potassium phosphate buffer (pH 7.4), and substrate 17-hydroxypregnelonone (17-P5; 5 μM with 80,000 CPM in methanol, 2% of incubation volume) was added. The resulting mixture was pre-incubated at 37° C. for 3 min before adding NADPH (1 mM) and incubating at 37° C. for another 20 min. The reaction mixture was extracted with 1 ml dichloromethane, and the organic phase was dried under nitrogen flow. Steroids were analyzed using an Agilent 1260 Infinity HPLC system with UV detector and β-RAM4 in-line scintillation counter (LabLogic, Brandon, Fla.). Extracted steroid products were dissolved in 20 μl of methanol, and 5 μl injections were resolved with a 50×2.1 mm, 2.6 μm, C8 Kinetex column (Phenomenex, Torrance, Calif.), equipped with a guard column at a flow rate of 0.4 mL min^−1. A methanol/water linear gradient was used: 27% methanol from 0 to 0.5 min, 39% to 16 min, 44% to 20 min, 60% to 22 min, 71% to 30 min, 75% to 30.5 min, 27% to 33 min. Products were identified by retention times of external standards chromatographed at the beginning and ends of the experiments. The flow rate of the scintillation cocktail (Bio-SafeII, Research Products International, Mount Prospect, Ill.) was 1.2 mL min^−1, and the data were processed with Laura4 software (LabLogic)."}, "[4]": {"molecular_target": "T3, cytochrome P450c17 (17α-hydroxylase/17,20-lyase; CYP17A1) (Homo sapiens, UniProt P05093)", "T3 sequence (P05093 1-508)": "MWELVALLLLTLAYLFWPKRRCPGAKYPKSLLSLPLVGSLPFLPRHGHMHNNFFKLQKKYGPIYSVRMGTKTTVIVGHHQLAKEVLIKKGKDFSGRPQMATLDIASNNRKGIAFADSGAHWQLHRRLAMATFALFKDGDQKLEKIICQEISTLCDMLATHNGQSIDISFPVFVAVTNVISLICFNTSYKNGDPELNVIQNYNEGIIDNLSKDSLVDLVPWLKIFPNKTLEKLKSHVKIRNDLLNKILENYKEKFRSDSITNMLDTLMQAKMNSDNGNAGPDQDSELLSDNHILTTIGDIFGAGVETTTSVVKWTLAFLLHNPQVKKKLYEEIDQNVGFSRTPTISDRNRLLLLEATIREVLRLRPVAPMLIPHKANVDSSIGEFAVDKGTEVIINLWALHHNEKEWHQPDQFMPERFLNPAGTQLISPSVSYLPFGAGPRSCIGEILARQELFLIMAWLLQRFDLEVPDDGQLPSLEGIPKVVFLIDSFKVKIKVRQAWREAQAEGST", "conditions": "cited from earlier work"}}, "note": "Where two headings read alike, the source gives them in different places.", "data": [{"molecule": "C[n+]1ccc(-c2cc[n+](C)cc2)cc1", "note": "[MV, methyl viologen]", "values": [{"measurement": "binding affinity of OspA-EmrE-ApoAI* compared to detergent-solubilized EmrE", "setting": "[1]", "value": "higher"}, {"measurement": "Kd", "setting": "[1]; in vivo solubilized EmrE, detergent-free", "value": 48, "unit": "µM"}, {"measurement": "Kd", "setting": "[2]; in vitro solubilized EmrE in dodecylmaltoside", "value": 46.2, "unit": "µM"}, {"measurement": "Kd", "setting": "[2]; in vitro solubilized EmrE in small unilamellar vesicles", "value": 38.2, "unit": "µM"}, {"measurement": "Kd", "setting": "[2]; in vitro solubilized EmrE in sodium dodecyl sulphate", "value": 5.4, "unit": "µM"}]}, {"molecule": "c1ccc([P+](c2ccccc2)(c2ccccc2)c2ccccc2)cc1", "note": "[TPP+, tetraphenylphosphonium]", "values": [{"measurement": "binding affinity of OspA-EmrE-ApoAI* compared to detergent-solubilized EmrE", "setting": "[1]", "value": "higher"}]}, {"molecule": "detergent-solubilized cyt b5: wild-type human cytochrome b5 that had been detergent solubilized (protein) MAEQSDEAVKYYTLEEIQKHNHSKSTWLILHHKVYDLTKFLEEHPGGEEVLREQAGGDATENFEDVGHSTDAREMSKTFIIGELHPDDRPKLNKPPETLITTIDSSSSWWTNWVIPAISAVAVALMYRLYMAED", "values": [{"measurement": "stimulation of lyase activity compared to the in vivo solubilized version", "setting": "[3]", "value": "slightly better stimulator of lyase activity"}, {"measurement": "stimulation of CYP17A1 lyase activity (DHEA formed from 17-P5)", "setting": "[3]; 5-25 pmol cyt b5 variant", "value": "plateaued"}, {"measurement": "stimulation of CYP17A1 lyase activity", "setting": "[3]; at slightly lower concentrations", "value": "dose-dependent stimulation"}, {"measurement": "stimulation of 17,20-lyase activity", "setting": "[4]; recombinant cyt b5 from E. coli, literature", "value": "stimulated 17,20-lyase activity"}]}, {"molecule": "cyt b5: human cytochrome b5, 134-residue bitopic membrane protein (protein, UniProt P00167 1-134, looked up, full-length, human cytochrome b5, 134-residue bitopic membrane protein) MAEQSDEAVKYYTLEEIQKHNHSKSTWLILHHKVYDLTKFLEEHPGGEEVLREQAGGDATENFEDVGHSTDAREMSKTFIIGELHPDDRPKLNKPPETLITTIDSSSSWWTNWVIPAISAVAVALMYRLYMAED", "values": [{"measurement": "increase of the rate of the 17,20-lyase reaction", "setting": "[4]; a molar equivalent of cyt b5", "value": 10, "unit": "fold"}]}]}
